Values belong to the molecule of their own block, whether it stands above or below them.
How the values were obtained:
[1] = biological target: T1, L-SMase (Mus musculus, UniProt Q04519); experiment: SMase assay of cell homogenate from J774 macrophages (SM micelles, pH 5.0); assay type: biochemical; conditions: 1,10-phenanthroline alone
T1 construct: endogenous in cells; host or cells: J774.A1 macrophages, sonicated cell homogenate
T1 sequence (Q04519 45-627): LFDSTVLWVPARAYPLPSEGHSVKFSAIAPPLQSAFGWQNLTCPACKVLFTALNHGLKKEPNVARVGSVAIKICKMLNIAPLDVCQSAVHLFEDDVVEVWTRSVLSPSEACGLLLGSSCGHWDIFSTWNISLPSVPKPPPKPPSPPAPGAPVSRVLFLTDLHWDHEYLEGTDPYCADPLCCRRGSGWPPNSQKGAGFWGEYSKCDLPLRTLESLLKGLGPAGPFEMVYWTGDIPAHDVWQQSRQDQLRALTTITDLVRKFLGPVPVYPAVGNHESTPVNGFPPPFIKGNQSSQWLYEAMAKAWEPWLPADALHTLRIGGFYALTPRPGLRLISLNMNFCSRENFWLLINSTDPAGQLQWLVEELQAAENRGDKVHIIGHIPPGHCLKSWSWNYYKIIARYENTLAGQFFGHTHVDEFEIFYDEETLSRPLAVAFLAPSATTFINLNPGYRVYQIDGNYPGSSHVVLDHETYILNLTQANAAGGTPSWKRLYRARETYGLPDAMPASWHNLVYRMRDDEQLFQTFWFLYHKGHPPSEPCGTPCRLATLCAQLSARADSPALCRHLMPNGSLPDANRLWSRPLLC
Procedure: FIGS. 14A-B. Sequential chelation and addition of Zn^2+ to secreted and intracellular SMase. Serum-free conditioned medium and a cell homogenate from J774 macrophages were prepared as described in “Experimental Procedures”. FIG. 14A, conditioned medium (CM) was assayed for SMase activity using 250 nM [^3H]sphingomyelin in Triton X-100 micelles in the presence of either 5 mM EDTA (first bar) or 0.1 mM ZnCl2 (second bar) for 1 h at 37° C. at pH 5.0. An aliquot of the Zn-activated conditioned medium was then incubated for 18 h in the presence of 10 mM EDTA, 10 mM 1,10-phenanthroline, and 0.6% Triton X-100 at 4° C. (EDTA PHNANTH) and then assayed for SMase activity (third bar). […]
(§1) SMase Assay—As previously described (Schissel et al., 1996), the standard 200-μl assay mixture consisted of up to 40 μl of sample (conditioned media or homogenized cells; see above) and a volume of assay buffer (0.1 M sodium acetate, pH 5.0) to bring the volume to 160 μl. […] The ceramide spots were scraped and directly counted to quantify [^3H]ceramide. Typically, the assay reactions contained approximately 20 μg of cellular homogenate protein and a volume of conditioned media derived from a quantity of cells equivalent to approximately 50 μg of cellular protein.

[2] = biological target: T2, S-SMase (Mus musculus, UniProt Q04519); experiment: SMase assay of conditioned medium from J774 macrophages (SM micelles, pH 5.0); assay type: biochemical; conditions: 1,10-phenanthroline alone
T2 construct: endogenous in cells; host or cells: J774.A1 macrophages, serum-free conditioned medium
T2 sequence (Q04519 45-627): T1 sequence (Q04519 45-627)
Procedure: FIGS. 14A-B. Sequential chelation and addition of Zn^2+ to secreted and intracellular SMase. Serum-free conditioned medium and a cell homogenate from J774 macrophages were prepared as described in “Experimental Procedures”. FIG. 14A, conditioned medium (CM) was assayed for SMase activity using 250 nM [^3H]sphingomyelin in Triton X-100 micelles in the presence of either 5 mM EDTA (first bar) or 0.1 mM ZnCl2 (second bar) for 1 h at 37° C. at pH 5.0. An aliquot of the Zn-activated conditioned medium was then incubated for 18 h in the presence of 10 mM EDTA, 10 mM 1,10-phenanthroline, and 0.6% Triton X-100 at 4° C. (EDTA PHNANTH) and then assayed for SMase activity (third bar). After chelation, a portion of this partially inactivated conditioned medium was then dialyzed against zinc-containing buffer C (150 mM NaCl, 10 mM Tris-HCl, 1 mM ZnCl2, 0.6% Triton X-100, pH 7.4) for 18 h and then assayed for SMase activity (fourth bar). FIG. 14B, an aliquot of cell homogenate (Cell Homgn) was assayed for SMase activity in the presence of assay buffer alone (first bar), 5 mM EDTA (second bar), or 0.1 mM ZnCl2 (third bar). Another aliquot of cell homogenate was incubated for 8 h in the presence of 10 mM EDTA, 10 mm 1,10-phenanthroline, and 0.6% Triton X-100 (EDTA PHNANTH) at 4° C. and then assayed for SMase activity (fourth bar). An aliquot of this chelator-treated cell homogenate was then dialyzed against zinc-containing buffer C for 18 h and then assayed for SMase activity (fifth bar).
as §1

[3] = biological target: T3, S-SMase (Homo sapiens, UniProt P17405); experiment: Zn2+ activation of S-SMase in presence of zinc-metalloproteinase inhibitors; assay type: biochemical
T3 sequence (P17405 47-631): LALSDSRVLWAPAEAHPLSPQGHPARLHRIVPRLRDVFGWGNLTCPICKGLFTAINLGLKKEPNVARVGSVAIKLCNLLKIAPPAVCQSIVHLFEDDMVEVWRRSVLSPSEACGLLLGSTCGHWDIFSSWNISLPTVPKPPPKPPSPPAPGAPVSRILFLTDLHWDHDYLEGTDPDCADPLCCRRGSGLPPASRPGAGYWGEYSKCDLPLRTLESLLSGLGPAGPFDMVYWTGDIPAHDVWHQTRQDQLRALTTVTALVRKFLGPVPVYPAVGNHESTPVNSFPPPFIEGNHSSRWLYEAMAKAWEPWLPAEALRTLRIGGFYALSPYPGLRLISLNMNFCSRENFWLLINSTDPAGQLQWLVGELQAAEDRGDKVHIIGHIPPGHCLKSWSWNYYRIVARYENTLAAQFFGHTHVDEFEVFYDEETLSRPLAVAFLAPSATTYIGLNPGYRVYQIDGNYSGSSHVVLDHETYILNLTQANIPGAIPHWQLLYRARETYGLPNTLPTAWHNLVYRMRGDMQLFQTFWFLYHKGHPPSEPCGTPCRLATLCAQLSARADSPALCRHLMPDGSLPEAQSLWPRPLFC
Procedure: as §1, with “μl. The reaction was initiated by the addition of 40 μl substrate (50 pmol [^3H]sphingomyelin) in 0.25 M sucrose containing 3% Triton X-100 (final concentration of Triton X-100 in the 200-μl assay mix=0.6%). When added, the final concentrations of EDTA and Zn^2+ were 5 mM and 0.1 mm, respectively, unless indicated otherwise.” for “μl.”
One question was how L- and S-SMase acquire their apparent differences in zinc-dependency. One explanation would be that the secreted form requires a Zn^2+-dependent co-factor. Because many lysosomal enzymes undergo proteolytic activation (Hasilik, 1992), an obvious candidate for a Zn^2+-dependent co-factor would be a zinc-metalloproteinase. The results of five experiments, however, ruled out this possibility. First, Zn^2+-activated S-SMase can be subsequently inactivated by Zn^2+-chelation (see below); reversibility of Zn^2+-induced activation is not consistent with proteolytic activation. […] Third, mammalian zinc-metalloproteinases require Ca^2+ as well as Zn^2+, for activity (Reynolds, 1996), whereas Ca^2+ is not a requirement for the activation of S-SMase (Schissel et al., 1996).

[4] = tested on: S-SMase secretion by HUVECs; experiment: Cytokine regulation of S-SMase secretion by HUVECs (SMase activity in conditioned media); assay type: cell-based, human; conditions: 18 h, interferon-β 1000 units/ml, IL-4 10 ng/ml
[5] = biological target: T3, S-SMase; experiment: S-SMase treatment of [3H]SM-LDL and [3H]SM-emulsions at pH 7.4; assay type: biochemical; design: endogenous in cells; host or cells: primary HUVEC, 24-h serum-free conditioned medium
Procedure: [^3H]SM-emulsions. [^3H]SM-emulsions with a lipid composition similar to human LDL were prepared as follows: 5.4 mg cholesteryl oleate, 0.48 mg triolein, 1.08 mg free cholesterol, 2.04 mg phosphatidylcholine, 0.96 mg sphingomyelin, and 50 μCi [N-palmitoyl-9,10^−3H]sphingomyelin were all added in chloroform to a sonication vial and the solvent completely evaporated by exposure to a stream of nitrogen, followed by the high vacuum of a lyophilizer. The dried lipids were resuspended in 3 mL of buffer containing 150 mM NaCl, 0.3 mM EDTA pH 7.4 and sonicated under a stream of argon at 40° C. until translucent (approximately 90 min) The sonicated material was then centrifuged twice at 15,000×g to pellet any titanium shed from the sonication probe. SM-rich emulsions were prepared exactly as above except that 1.2 mg of phosphatidylcholine and 1.8 mg of SM were used, and sonication time was increased to 120 min. [^3H]SM-emulsions were enriched with apo CIII based on the method of Ahmad et al. (Ahmad et al., 1986). Briefly, [^3H]SM-emulsions (0.4 mL; 182 nmol SM) were incubated with 200 μg apo CIII (22.5 nmol) for 2 h at 40° C. A portion of the emulsions were re-isolated from free ape CIII using ultrafiltration (Clavey et al., 1995) as follows: the crude emulsion-apo CIII mixture was diluted to 2 mL with buffer containing 150 mM NaCl, 0.3 mM EDTA pH 7.4 and ultra filtered and concentrated to 0.2 mL using a CENTRICON® 30 (molecular weight cut-off=30,000); the concentrated emulsions were then diluted to 2 mL and the process was repeated 5 times. [^3H]SM-emulsions run through the same enrichment and re-isolation protocols in the absence of apo CIII served as the control for the experiments in FIG. 11A.
S-SMase. The source of S-SMase was serum-free conditioned medium from DG44 CHO cells stably transfected with the human acid SMase cDNA (Schissel et al., 1996; Schuchman et al., 1991). […] Cells were plated in 100-mm dishes and cultured for 48 h in DMEM/FBS/PSG. The cells were then changed to low protein serum-free media for 12 h. washed 3 times with PBS, and finally incubated for 18 h in fresh serum-free media (6 mL per 100-mm dish) The “18-h conditioned medium” was then collected, centrifuged at 1000×g to pellet any cells and, except where indicated, ZnCl2 (final concentration=100 μM) was added to fully activate and stabilize S-SMase; this S-SMase-containing conditioned media was then used fresh to treat LDL and lipid emulsions.
S-SMase Treatment of LDL and Emulsions. The standard incubation mixture consisted of up to 50 μl of sample (LDL or emulsions). […] The ceramide spots were scraped and directly counted to quantify [^3H]ceramide. In all other samples ceramide was determined as described above.

Molecule: HO—NH—CO—CH2—CH(CH2CH(CH3)2)—C)-Nal-Ala-NH—CH2—CH2—NH2
effect on ability of Zn2+ to activate S-SMase [3]: did not affect

Molecule: HS—CH2—R—CH(CH2—CH(CH3)2)—C)-Phe-Ala-NH2
effect on ability of Zn2+ to activate S-SMase [3]: did not affect

Molecule: IL-4: human recombinant interleukin-4
accumulation of S-SMase in conditioned media (qualitative) [4]: no effect

Molecule: lysophosphatidylcholine
stimulation of S-SMase hydrolysis of [3H]SM-LDL ([5]; exogenously added): 2-3 fold

More lines, now with the values ahead:

inhibition of L-SMase [1]: does not inhibit | inhibition of S-SMase [2]: does not inhibit
Molecule: c1cnc2c(c1)ccc1cccnc12 [1,10-phenanthroline]

effect on ability of Zn2+ to activate S-SMase [3]: did not affect
Molecule: TIMP-1: tissue inhibitor of metalloproteinase-1, inhibitor of zinc-metalloproteinases

S-SMase hydrolysis of [3H]SM-emulsions versus control emulsions ([5]; emulsion-bound + free apo CIII): two-fold greater | S-SMase hydrolysis of [3H]SM-emulsions versus control emulsions ([5]; emulsion-bound apo CIII only): approximately ten-fold more
Molecule: apo CIII: human native apolipoprotein CIII

S-SMase hydrolysis of [3H]SM-LDL after treating the LDL with sPLA2 ([5]; LDL pretreated 14 h at 37° C.): markedly enhanced
B1: sPLA2: human recombinant nonpancreatic soluble PLA2 (protein, UniProt P14555 21-144, looked up)
Phospholipase A2, membrane …: NLVNFHRMIKLTTGKEAALSYGFYGCHCGVGGRGSPKDATDRCCVTHDCCYKRLEKRGCGTKFLSYKFSNSGSRITCAKQDSCRSQLCECDKAAATCFARNKTTYNKKYQYYSNKHCRGSTPRC
